# Experimental data as given in patent US9247750B2, “Polyenylcyclopropanecarboxylic esters with high insecticidal activity” (Endura S.P.A., priority 2007, dated 2016).
# Legend:
# Format in all cases: in vivo
# Aedes aegypti [1] = assay: Insecticide effectiveness in the vapour phase against mosquitoes, impregnated paper unit in 20 m^3 room (Example 5); details: 5 mg/unit; for % mortality 24 h: 24th hour from start of test; for % Knock-down 8 h: at end of 8th hour; for Knock-down time KT10 / Knock-down time KT50 / Knock-down time KT90: average of 3 cages
# Procedure: (§1) Test units consisting of a paper support 20 cm×10 cm in size were impregnated with the compound of example 3 and, for comparative purposes, with the reference compounds transfluthrin and metofluthrin, at an amount of 5.00 mg/unit for each compound (pure).
# (§2) Using a common laboratory stand, the test unit was placed at a height of about 30 cm from the ground along one side of a 20 m^3 room (L 3.00 m×D 2.49 m×H 2.69 m). In order to homogenize the insecticidal air within the room, a small electric fan was placed on the floor diagonal to the surface of the unit, in the is nearest corner at a distance of about 50 cm from the unit. Three metal cages (L 8.4 cm×Ø 8.0 cm×mesh 1.0 mm) for every mosquito species, each containing 20 3-4 day old individuals of mixed sex, were placed along the other three sides of the room, at a height of 1.80 m from the ground and at a distance of 0.45 m from the respective walls. During the test the room was kept closed and temperature and humidity were controlled (T 23-26° C., RH 49-61%).
# (§3) The fan was switched on and left on for 8 continuous hours. The times needed to reach 10%, 50% and 90% insect knock-down (KT10, KT50 and KT90, respectively) were recorded.
# (§4) Every 2 hours and up to the 6th hour after the fan was switched on, new cages were introduced containing insects (set of 3 cages for each species).
# (§5) At the end of the 8th hour, the percentage of insects knocked down in all the cages was determined, then the insects were removed from the room and transferred into an uncontaminated atmosphere within closed containers containing a sugary solution. The percentage mortality was recorded at the 24th hour from the start of the test.
# (§6) The results obtained are summarized in tables 1 and 2 and the data are averages for the 3 cages.
# Culex quinquefasciatus [2] = assay: as above; details: 5 mg/unit; for % mortality 24 h: 24th hour from start of test; for % Knock-down 8 h: at end of 8th hour; for Knock-down time KT10 / Knock-down time KT50 / Knock-down time KT90: average of 3 cages
# Procedure: as §1, §2, §3, §4, §5, §6
# Blattella germanica = assay: Effectiveness of residual insecticide on surfaces (glazed tiles) against cockroaches (Example 6); details: for Time to reach 100% knock-down followed by death: 50 mg/m^2 on glazed tiles
# Procedure: Solutions of the compound of example 3 in acetone and, for comparison, of the reference compounds Transfluthrin and Metofluthrin were applied from a distance of 12 cm onto glazed tiles (Ostara model, 15×15 cm=225 cm^2) by means of a suitable glass sprayer, so as to obtain an applied amount of pure compound equal to 50 mg/m^2. After treatment the tiles were transferred to and maintained in a closed test room at controlled temperature and humidity (24-25° C., RH 50-60%). Glass rings (H 5.5 cm×Ø 9.5 cm), with their internal surface treated with talc, and each containing 5 cockroaches, were positioned at the centre of the tiles for each of the assessment times of 24 hours, 3, 7, 10 and 14 days following treatment. For each assessment day, the insects were maintained on the surface for 24 hours and the time (hours, minutes) necessary to attain 100% knock-down followed by death, or percentage knock-down at the end of 24 hours, were recorded.
# Aedes aegypti [3] = assay: Insecticide effectiveness in the vapour phase against mosquitoes, impregnated paper unit in 20 m^3 room (Example 9); details: 5 mg/unit; for % mortality 24 h: 24th hour from start of test; for % Knock-down 8 h: at end of 8th hour; for Knock-down time KT10 / Knock-down time KT50 / Knock-down time KT90: average of 3 cages
# Procedure: as §2, with “Test units consisting of a paper support 20 cm×10 cm in size were impregnated with the compound of examples 3, 7 and 8 and, for comparative purposes, with the reference compounds transfluthrin and metofluthrin, at an amount of 5.00 mg/unit for each compound (pure). Using” for “Using”, “the” for “the is”, “49-61%). The fan was switched on and left on for 8 continuous hours. The times needed to reach 10%, 50% and 90% insect knock-down (KT10, KT50 and KT90, respectively) were recorded.” for “49-61%).”
# as §4, §5, §6
# Culex quinquefasciatus [4] = assay: as above; details: 5 mg/unit; for % mortality 24 h: 24th hour from start of test; for % Knock-down 8 h: at end of 8th hour; for Knock-down time KT10 / Knock-down time KT50 / Knock-down time KT90: average of 3 cages
# Procedure: as §2, with “Test units consisting of a paper support 20 cm×10 cm in size were impregnated with the compound of examples 3, 7 and 8 and, for comparative purposes, with the reference compounds transfluthrin and metofluthrin, at an amount of 5.00 mg/unit for each compound (pure). Using” for “Using”, “the” for “the is”, “49-61%). The fan was switched on and left on for 8 continuous hours. The times needed to reach 10%, 50% and 90% insect knock-down (KT10, KT50 and KT90, respectively) were recorded.” for “49-61%).”
# as §4, §5, §6
smiles,measurement,setting,value
"C=CC=C[C@@H]1[C@@H](C(=O)OCc2c(F)c(F)cc(F)c2F)C1(C)C (mixture of isomers) [Example 3, 2,3,5,6-tetrafluorobenzyl(1R,3R)-3-((E/Z)-Buta-1,3-dienyl)-2,2-dimethylcyclopropane-1-carboxylate]",% mortality 24 h,Aedes aegypti [1]; insect exposure after 0 hours,100%
same,% Knock-down 8 h,Aedes aegypti [1]; insect exposure after 0 hours,100%
same,Knock-down time KT10,Aedes aegypti [1]; insect exposure after 0 hours,16 min
same,Knock-down time KT50,Aedes aegypti [1]; insect exposure after 0 hours,19 min
same,Knock-down time KT90,Aedes aegypti [1]; insect exposure after 0 hours,25 min
same,% mortality 24 h,Aedes aegypti [1]; insect exposure after 2 hours,100%
same,% Knock-down 8 h,Aedes aegypti [1]; insect exposure after 2 hours,100%
same,Knock-down time KT10,Aedes aegypti [1]; insect exposure after 2 hours,4 min
same,Knock-down time KT50,Aedes aegypti [1]; insect exposure after 2 hours,6 min
same,Knock-down time KT90,Aedes aegypti [1]; insect exposure after 2 hours,9 min
same,% mortality 24 h,Aedes aegypti [1]; insect exposure after 4 hours,100%
same,% Knock-down 8 h,Aedes aegypti [1]; insect exposure after 4 hours,100%
same,Knock-down time KT10,Aedes aegypti [1]; insect exposure after 4 hours,4 min
same,Knock-down time KT50,Aedes aegypti [1]; insect exposure after 4 hours,6 min
same,Knock-down time KT90,Aedes aegypti [1]; insect exposure after 4 hours,11 min
same,% mortality 24 h,Culex quinquefasciatus [2]; insect exposure after 0 hours,100%
same,% Knock-down 8 h,Culex quinquefasciatus [2]; insect exposure after 0 hours,100%
same,Knock-down time KT10,Culex quinquefasciatus [2]; insect exposure after 0 hours,20 min
same,Knock-down time KT50,Culex quinquefasciatus [2]; insect exposure after 0 hours,23 min
same,Knock-down time KT90,Culex quinquefasciatus [2]; insect exposure after 0 hours,31 min
same,% mortality 24 h,Culex quinquefasciatus [2]; insect exposure after 2 hours,100%
same,% Knock-down 8 h,Culex quinquefasciatus [2]; insect exposure after 2 hours,100%
same,Knock-down time KT10,Culex quinquefasciatus [2]; insect exposure after 2 hours,6 min
same,Knock-down time KT50,Culex quinquefasciatus [2]; insect exposure after 2 hours,8 min
same,Knock-down time KT90,Culex quinquefasciatus [2]; insect exposure after 2 hours,12 min
same,% mortality 24 h,Culex quinquefasciatus [2]; insect exposure after 4 hours,100%
same,% Knock-down 8 h,Culex quinquefasciatus [2]; insect exposure after 4 hours,100%
same,Knock-down time KT10,Culex quinquefasciatus [2]; insect exposure after 4 hours,6 min
same,Knock-down time KT50,Culex quinquefasciatus [2]; insect exposure after 4 hours,10 min
same,Knock-down time KT90,Culex quinquefasciatus [2]; insect exposure after 4 hours,18 min
same,Time to reach 100% knock-down followed by death,Blattella germanica; 1 day after treatment,15′ minutes
same,Time to reach 100% knock-down followed by death,Blattella germanica; 3 days after treatment,15′ minutes
same,Time to reach 100% knock-down followed by death,Blattella germanica; 7 days after treatment,15′ minutes
same,Time to reach 100% knock-down followed by death,Blattella germanica; 10 days after treatment,15′ minutes
same,Time to reach 100% knock-down followed by death,Blattella germanica; 14 days after treatment,15′ minutes
same,time of exposure to total knock-down (100%),Blattella germanica; table 3,≤ 15 min
same,% mortality 24 h,Aedes aegypti [3]; insect exposure after 0 hours,100%
same,% Knock-down 8 h,Aedes aegypti [3]; insect exposure after 0 hours,100%
same,Knock-down time KT10,Aedes aegypti [3]; insect exposure after 0 hours,16 min
same,Knock-down time KT50,Aedes aegypti [3]; insect exposure after 0 hours,20 min
same,Knock-down time KT90,Aedes aegypti [3]; insect exposure after 0 hours,26 min
same,% mortality 24 h,Aedes aegypti [3]; insect exposure after 2 hours,100%
same,% Knock-down 8 h,Aedes aegypti [3]; insect exposure after 2 hours,100%
same,Knock-down time KT10,Aedes aegypti [3]; insect exposure after 2 hours,5 min
same,Knock-down time KT50,Aedes aegypti [3]; insect exposure after 2 hours,8 min
same,Knock-down time KT90,Aedes aegypti [3]; insect exposure after 2 hours,11 min
same,% mortality 24 h,Aedes aegypti [3]; insect exposure after 4 hours,100%
same,% Knock-down 8 h,Aedes aegypti [3]; insect exposure after 4 hours,100%
same,Knock-down time KT10,Aedes aegypti [3]; insect exposure after 4 hours,5 min
same,Knock-down time KT50,Aedes aegypti [3]; insect exposure after 4 hours,8 min
same,Knock-down time KT90,Aedes aegypti [3]; insect exposure after 4 hours,12 min
same,% mortality 24 h,Culex quinquefasciatus [4]; insect exposure after 0 hours,100%
same,% Knock-down 8 h,Culex quinquefasciatus [4]; insect exposure after 0 hours,100%
same,Knock-down time KT10,Culex quinquefasciatus [4]; insect exposure after 0 hours,23 min
same,Knock-down time KT50,Culex quinquefasciatus [4]; insect exposure after 0 hours,28 min
same,Knock-down time KT90,Culex quinquefasciatus [4]; insect exposure after 0 hours,35 min
same,% mortality 24 h,Culex quinquefasciatus [4]; insect exposure after 2 hours,100%
same,% Knock-down 8 h,Culex quinquefasciatus [4]; insect exposure after 2 hours,100%
same,Knock-down time KT10,Culex quinquefasciatus [4]; insect exposure after 2 hours,7 min
same,Knock-down time KT50,Culex quinquefasciatus [4]; insect exposure after 2 hours,11 min
same,Knock-down time KT90,Culex quinquefasciatus [4]; insect exposure after 2 hours,15 min
same,% mortality 24 h,Culex quinquefasciatus [4]; insect exposure after 4 hours,100%
same,% Knock-down 8 h,Culex quinquefasciatus [4]; insect exposure after 4 hours,100%
same,Knock-down time KT10,Culex quinquefasciatus [4]; insect exposure after 4 hours,8 min
same,Knock-down time KT50,Culex quinquefasciatus [4]; insect exposure after 4 hours,10 min
same,Knock-down time KT90,Culex quinquefasciatus [4]; insect exposure after 4 hours,14 min
"C=CC=C[C@@H]1[C@@H](C(=O)OCc2coc(Cc3ccccc3)c2)C1(C)C (mixture of isomers) [Example 7, (2-benzyl-4-hydroxymethylfuryl) (1R,3R)-3-((E/Z)-Buta-1,3-dienyl)-2,2-dimethylcyclopropane-1-carboxylate]",% mortality 24 h,Aedes aegypti [3]; insect exposure after 0 hours,79%
same,% Knock-down 8 h,Aedes aegypti [3]; insect exposure after 0 hours,5%
same,% mortality 24 h,Aedes aegypti [3]; insect exposure after 2 hours,79%
same,% Knock-down 8 h,Aedes aegypti [3]; insect exposure after 2 hours,0%
same,% mortality 24 h,Aedes aegypti [3]; insect exposure after 4 hours,65%
same,% Knock-down 8 h,Aedes aegypti [3]; insect exposure after 4 hours,0%
same,% mortality 24 h,Culex quinquefasciatus [4]; insect exposure after 0 hours,70%
same,% Knock-down 8 h,Culex quinquefasciatus [4]; insect exposure after 0 hours,8%
same,% mortality 24 h,Culex quinquefasciatus [4]; insect exposure after 2 hours,35%
same,% Knock-down 8 h,Culex quinquefasciatus [4]; insect exposure after 2 hours,2%
same,% mortality 24 h,Culex quinquefasciatus [4]; insect exposure after 4 hours,23%
same,% Knock-down 8 h,Culex quinquefasciatus [4]; insect exposure after 4 hours,0%
"C=CC=C[C@@H]1[C@@H](C(=O)OCc2c(F)c(F)c(COC)c(F)c2F)C1(C)C (mixture of isomers) [Example 8, 2,3,5,6-tetrafluoro-4-methoxymethyl benzyl(1R,3R)-3-((E/Z)-Buta-1,3-dienyl)-2,2-dimethylcyclopropane-1-carboxylate]",% mortality 24 h,Aedes aegypti [3]; insect exposure after 0 hours,100%
same,% Knock-down 8 h,Aedes aegypti [3]; insect exposure after 0 hours,100%
same,Knock-down time KT10,Aedes aegypti [3]; insect exposure after 0 hours,22 min
same,Knock-down time KT50,Aedes aegypti [3]; insect exposure after 0 hours,31 min
same,Knock-down time KT90,Aedes aegypti [3]; insect exposure after 0 hours,40 min
same,% mortality 24 h,Aedes aegypti [3]; insect exposure after 2 hours,100%
same,% Knock-down 8 h,Aedes aegypti [3]; insect exposure after 2 hours,100%
same,Knock-down time KT10,Aedes aegypti [3]; insect exposure after 2 hours,12 min
same,Knock-down time KT50,Aedes aegypti [3]; insect exposure after 2 hours,29 min
same,Knock-down time KT90,Aedes aegypti [3]; insect exposure after 2 hours,41 min
same,% mortality 24 h,Aedes aegypti [3]; insect exposure after 4 hours,100%
same,% Knock-down 8 h,Aedes aegypti [3]; insect exposure after 4 hours,100%
same,Knock-down time KT10,Aedes aegypti [3]; insect exposure after 4 hours,18 min
same,Knock-down time KT50,Aedes aegypti [3]; insect exposure after 4 hours,32 min
same,Knock-down time KT90,Aedes aegypti [3]; insect exposure after 4 hours,50 min
same,% mortality 24 h,Culex quinquefasciatus [4]; insect exposure after 0 hours,83%
same,% Knock-down 8 h,Culex quinquefasciatus [4]; insect exposure after 0 hours,100%
same,Knock-down time KT10,Culex quinquefasciatus [4]; insect exposure after 0 hours,35 min
same,Knock-down time KT50,Culex quinquefasciatus [4]; insect exposure after 0 hours,44 min
same,Knock-down time KT90,Culex quinquefasciatus [4]; insect exposure after 0 hours,70 min
same,% mortality 24 h,Culex quinquefasciatus [4]; insect exposure after 2 hours,70%
same,% Knock-down 8 h,Culex quinquefasciatus [4]; insect exposure after 2 hours,100%
same,Knock-down time KT10,Culex quinquefasciatus [4]; insect exposure after 2 hours,39 min
same,Knock-down time KT50,Culex quinquefasciatus [4]; insect exposure after 2 hours,50 min
same,Knock-down time KT90,Culex quinquefasciatus [4]; insect exposure after 2 hours,68 min
same,% mortality 24 h,Culex quinquefasciatus [4]; insect exposure after 4 hours,61%
same,% Knock-down 8 h,Culex quinquefasciatus [4]; insect exposure after 4 hours,100%
same,Knock-down time KT10,Culex quinquefasciatus [4]; insect exposure after 4 hours,39 min
same,Knock-down time KT50,Culex quinquefasciatus [4]; insect exposure after 4 hours,53 min
same,Knock-down time KT90,Culex quinquefasciatus [4]; insect exposure after 4 hours,66 min
